Source: ChEMBL document CHEMBL5512674, “Novel Acyl Thiourea-Based Hydrophobic Tagging Degraders Exert Potent Anti-Influenza Activity through Two Distinct Endonuclease Polymerase Acidic-Targeted Degradation Pathways” (J Med Chem, 2024)
Active and inactive are the calls of the source. No cut-off for these calls is given here.

What was measured:
[1] = target: T1, von Hippel-Lindau disease tumor suppressor/Polymerase basic protein 2 (Influenza A virus (strain A/Puerto Rico/8/1934 H1N1)) (UniProt P40337+P03428); assay: PROTAC activity at Influenza A virus A/WSN/33(H1N1) flag tagged Polymerase basic protein 2/VHL (unknown origin) expressed in HEK293T cells assessed as degradation of PB2 expression at 1 ug/ml incubated for 24 hrs by Western blotting analysis; type: cell-based; conditions: dose 1.0 µg/ml
T1 sequence (P03428 whole entry, looked up): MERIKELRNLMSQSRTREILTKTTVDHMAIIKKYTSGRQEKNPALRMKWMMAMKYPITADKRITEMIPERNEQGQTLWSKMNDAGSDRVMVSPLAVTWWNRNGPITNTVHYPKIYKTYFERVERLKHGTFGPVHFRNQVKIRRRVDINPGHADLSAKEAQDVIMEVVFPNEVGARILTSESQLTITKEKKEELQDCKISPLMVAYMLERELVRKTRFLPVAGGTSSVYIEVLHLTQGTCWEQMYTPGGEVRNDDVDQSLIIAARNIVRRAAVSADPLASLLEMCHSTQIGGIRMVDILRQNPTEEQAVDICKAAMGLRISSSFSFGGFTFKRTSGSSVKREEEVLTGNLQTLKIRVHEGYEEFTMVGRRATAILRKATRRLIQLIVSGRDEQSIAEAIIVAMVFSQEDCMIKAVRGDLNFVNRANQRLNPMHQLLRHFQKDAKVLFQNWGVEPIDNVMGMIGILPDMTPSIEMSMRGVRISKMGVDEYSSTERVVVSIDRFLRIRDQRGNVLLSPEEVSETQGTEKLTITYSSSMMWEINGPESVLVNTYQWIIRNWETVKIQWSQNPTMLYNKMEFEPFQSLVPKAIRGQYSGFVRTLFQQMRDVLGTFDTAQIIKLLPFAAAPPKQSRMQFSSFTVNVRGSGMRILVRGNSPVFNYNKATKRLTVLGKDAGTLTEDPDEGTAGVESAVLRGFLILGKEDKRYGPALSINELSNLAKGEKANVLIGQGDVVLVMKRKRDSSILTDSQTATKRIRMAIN
T1 sequence (P40337 whole entry, looked up): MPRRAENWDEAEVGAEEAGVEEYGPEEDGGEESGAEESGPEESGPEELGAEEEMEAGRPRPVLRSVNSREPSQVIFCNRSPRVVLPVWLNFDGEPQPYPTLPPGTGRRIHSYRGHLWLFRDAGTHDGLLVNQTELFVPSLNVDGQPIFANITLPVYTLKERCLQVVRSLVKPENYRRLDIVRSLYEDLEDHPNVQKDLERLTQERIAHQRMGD

[2] = test system: Influenza A virus; assay: Anti-influenza activity against Influenza A virus A/WSN/33(H1N1) infected in HEK293T cells assessed as reduction in virus-induced cytopathic effect incubated for 48 hrs by CCK-8 assay; type: functional, organism-based; conditions: HEK-293T
[3] = Selectivity index, ratio of CC50 for cytotoxicity against human HEK293T cells to EC50 for anti-influenza activity against Influenza A virus A/WSN/33(H1N1) infected in HEK293T cells assessed as reduction in virus-induced cytopathic effect; type: toxicity, cell-based; conditions: read-out: Ratio CC50/EC50
[4] = target: T1, von Hippel-Lindau disease tumor suppressor/Polymerase basic protein 2 (Influenza A virus (strain A/Puerto Rico/8/1934 H1N1)); assay: PROTAC activity at Influenza A virus A/WSN/33(H1N1) flag tagged Polymerase basic protein 2/VHL (unknown origin) expressed in HEK293T cells assessed as degradation of PB2 expression at 10 ug/ml incubated for 24 hrs by Western blotting analysis; type: cell-based; conditions: dose 10.0 µg/ml
[5] = Cytotoxicity against human HEK293T cells assessed as reduction in cell viability incubated for 48 hrs by CCK-8 assay; type: toxicity, cell-based, HEK-293T
[6] = target: T2, von Hippel-Lindau disease tumor suppressor/Polymerase basic protein 1 (Influenza A virus (strain A/Puerto Rico/8/1934 H1N1)) (UniProt P03431+P40337); assay: PROTAC activity at Influenza A virus A/WSN/33(H1N1) flag tagged Polymerase basic protein 1/VHL (unknown origin) expressed in HEK293T cells assessed as degradation of PB1 expression at 1 ug/ml incubated for 24 hrs by Western blotting analysis; type: cell-based; conditions: dose 1.0 µg/ml
T2 sequence (P03431 whole entry, looked up): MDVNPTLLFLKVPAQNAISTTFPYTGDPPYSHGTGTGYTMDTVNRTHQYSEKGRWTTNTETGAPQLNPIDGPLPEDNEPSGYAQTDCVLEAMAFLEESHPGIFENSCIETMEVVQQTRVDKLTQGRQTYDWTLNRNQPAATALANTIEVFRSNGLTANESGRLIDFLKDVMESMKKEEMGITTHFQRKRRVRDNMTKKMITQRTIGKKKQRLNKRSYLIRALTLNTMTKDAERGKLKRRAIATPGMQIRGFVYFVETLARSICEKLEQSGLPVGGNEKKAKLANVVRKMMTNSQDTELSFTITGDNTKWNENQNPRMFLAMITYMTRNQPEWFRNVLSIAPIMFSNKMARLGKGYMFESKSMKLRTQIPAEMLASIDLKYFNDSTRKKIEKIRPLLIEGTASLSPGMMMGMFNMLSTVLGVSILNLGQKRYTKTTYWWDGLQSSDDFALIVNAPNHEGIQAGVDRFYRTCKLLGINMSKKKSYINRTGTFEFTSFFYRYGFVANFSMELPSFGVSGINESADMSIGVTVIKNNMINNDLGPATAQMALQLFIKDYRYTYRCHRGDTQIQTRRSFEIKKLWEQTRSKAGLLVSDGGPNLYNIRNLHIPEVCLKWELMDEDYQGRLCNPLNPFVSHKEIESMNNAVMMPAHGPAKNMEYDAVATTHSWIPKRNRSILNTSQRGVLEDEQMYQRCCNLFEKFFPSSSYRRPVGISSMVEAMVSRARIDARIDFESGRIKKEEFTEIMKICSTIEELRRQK
T2 sequence (P40337 whole entry, looked up): as the sequence (P40337 whole entry, looked up) above

[7] = target: T2, von Hippel-Lindau disease tumor suppressor/Polymerase basic protein 1 (Influenza A virus (strain A/Puerto Rico/8/1934 H1N1)); assay: PROTAC activity at Influenza A virus A/WSN/33(H1N1) flag tagged Polymerase basic protein 1/VHL (unknown origin) expressed in HEK293T cells assessed as degradation of PB1 expression at 10 ug/ml incubated for 24 hrs by Western blotting analysis; type: cell-based; conditions: dose 10.0 µg/ml
[8] = target: T3, von Hippel-Lindau disease tumor suppressor/Polymerase acidic protein (Influenza A virus (A/Puerto Rico/8/1934(H1N1))) (UniProt P03433+P40337); assay: PROTAC activity at Influenza A virus A/WSN/33(H1N1) flag tagged Polymerase acidic protein/VHL (unknown origin) expressed in HEK293T cells assessed as degradation of PA expression at 10 uM incubated for 24 hrs by Western blotting analysis; type: cell-based
[9] = Hepatic extraction ratio in dog liver microsomes preincubated for 5 mins followed by NADPH addition and measured for 45 mins by LC-MS analysis; type: ADME, Canis lupus familiaris, Microsome; conditions: time 50 min, read-out: ERH
[10] = Hepatic extraction ratio in human liver microsomes preincubated for 5 mins followed by NADPH addition and measured for 45 mins by LC-MS analysis; type: ADME, Microsome; conditions: time 50 min, read-out: ERH
[11] = Hepatic extraction ratio in mouse liver microsomes preincubated for 5 mins followed by NADPH addition and measured for 45 mins by LC-MS analysis; type: ADME, Microsome; conditions: time 50 min, read-out: ERH
[12] = Stability in human plasma assessed as compound remaining measured after 15 mins by LC-MS/MS analysis; type: ADME, cell-free; conditions: 0.25 h, BLD = below limit of detection
[13] = Stability in human plasma assessed as compound remaining measured after 120 mins by LC-MS/MS analysis; type: ADME, cell-free; conditions: 2 h, BLD = below limit of detection
[14] = Stability in human plasma assessed as compound remaining measured after 5 mins by LC-MS/MS analysis; type: ADME, cell-free; conditions: read-out: Stability
[15] = Stability in human plasma assessed as compound remaining measured after 60 mins by LC-MS/MS analysis; type: ADME, cell-free; conditions: read-out: Stability
[16] = Stability in human plasma assessed as compound remaining measured after 30 mins by LC-MS/MS analysis; type: ADME, cell-free; conditions: 0.5 h, BLD = below limit of detection
[17] = Stability in human plasma assessed as compound remaining by LC-MS/MS analysis; type: ADME, cell-free
[18] = Half life in human plasma by LC-MS/MS analysis; type: ADME, cell-free
[19] = test system: Influenza B virus; assay: Anti-influenza activity against Influenza B virus Yamagata/16/88 infected in HEK293T cells assessed as reduction in virus-induced cytopathic effect incubated for 48 hrs by CCK-8 assay; type: functional, organism-based; conditions: Yamagata/16/88, HEK-293T
[20] = test system: Influenza B virus; assay: Anti-influenza activity against Influenza B virus Victoria/2/87 infected in HEK293T cells assessed as reduction in virus-induced cytopathic effect incubated for 48 hrs by CCK-8 assay; type: functional, organism-based; conditions: Victoria/2/87, HEK-293T
[21] = test system: Influenza A virus; assay: Anti-influenza activity against Influenza A virus H3N2 infected in HEK293T cells assessed as reduction in virus-induced cytopathic effect incubated for 48 hrs by CCK-8 assay; type: functional, organism-based; conditions: H3N2, HEK-293T
[22] = target: T3, von Hippel-Lindau disease tumor suppressor/Polymerase acidic protein (Influenza A virus (A/Puerto Rico/8/1934(H1N1))); assay: PROTAC activity at Influenza A virus A/WSN/33(H1N1) flag tagged Polymerase acidic protein/VHL (unknown origin) expressed in HEK293T cells assessed as degradation of PA expression at 5 uM incubated for 24 hrs by Western blotting analysis; type: cell-based

Row | Compound | Activity [1] | EC50 [2] [nM] | selectivity ratio [3] | Activity [4] | CC50 at 48 h [5] [nM] | Activity [6] | Activity [7] | also measured
1 | CC(C)(C)OC(=O)NCCCC[C@H](NC(=O)OC(C)(C)C)C(=O)NCCCCCCCCCCCC(=O)Nc1ccc(NC(=S)NC(=O)c2ccc(C(C)(C)C)cc2)cc1 | inactive | 534 | > 187 | inactive | > 100000 | inactive | inactive | –
2 | CC(C)(C)OC(=O)N[C@@H](Cc1c[nH]c2ccccc12)C(=O)NCCCCCCCCCCCC(=O)Nc1ccc(NC(=S)NC(=O)c2ccc(C(C)(C)C)cc2)cc1 | inactive | 974 | > 103 | inactive | > 100000 | inactive | inactive | –
3 | CC(C)(C)OC(=O)NCCCC[C@H](NC(=O)OC(C)(C)C)C(=O)NCCCCCCCCCC(=O)Nc1ccc(NC(=S)NC(=O)c2ccc(C(C)(C)C)cc2)cc1 | inactive | 45 | > 2220 | inactive | > 100000 | inactive | inactive | Activity [8]: Active
4 | CC(C)(C)OC(=O)N[C@@H](Cc1c[nH]c2ccccc12)C(=O)NCCCC(=O)Nc1ccc(NC(=S)NC(=O)c2ccc(C(C)(C)C)cc2)cc1 | inactive | 572 | 167 | inactive | 95400 | inactive | inactive | –
5 | O=C(c1ccc(F)cc1)C1CCN(CCn2c(=O)[nH]c3ccccc3c2=O)CC1 [KETANSERIN] | – | – | – | – | – | – | – | hepatic extraction ratio at 0.75 h [9]: 0.697; hepatic extraction ratio at 0.75 h [10]: 0.693; hepatic extraction ratio at 0.75 h [11]: 0.765
6 | CC(C)(C)c1ccc(C(=O)NC(=S)Nc2ccc(NC(=O)CCCCCCCCCN)cc2)cc1 | – | 298 | 21.1 | – | < 6290 | – | – | –
7 | CCN(CC)CCOC(=O)c1ccc(N)cc1 [PROCAINE] | – | – | – | – | – | – | – | Stability [12]: Bld; Stability [13]: Bld; remaining at 5 min [14]: 4.49%; remaining at 1 h [15]: 0.1%; Stability [16]: Bld; Stability [17]: 100%; half-life [18]: 1.12 min
8 | CC(C)(C)OC(=O)NCCCC[C@H](NC(=O)OC(C)(C)C)C(=O)NCCCCCCC(=O)Nc1ccc(NC(=S)NC(=O)c2ccc(C(C)(C)C)cc2)cc1 | inactive | 75 | > 1330 | inactive | > 100000 | inactive | inactive | Activity [8]: Active
9 | NC(=O)c1nc(F)cnc1O [FAVIPIRAVIR] | – | 8290 | > 18.1 | – | > 100000 | – | – | EC50 [19]: > 10000 nM; EC50 [20]: > 10000 nM; EC50 [21]: > 10000 nM
10 | CCCCCCCCNC(=O)[C@H](CCCCNC(=O)OC(C)(C)C)NC(=O)OC(C)(C)C | – | – | – | – | – | – | – | Activity [22]: inactive
11 | CC(C)(C)OC(=O)N[C@@H](Cc1c[nH]c2ccccc12)C(=O)Nc1ccc(NC(=S)NC(=O)c2ccc(C(C)(C)C)cc2)cc1 | inactive | 407 | > 246 | inactive | > 100000 | inactive | inactive | –
12 | CC(C)(C)c1ccc(C(=O)NC(=S)Nc2ccc(NC(=O)CCCCCCN)cc2)cc1 | – | > 44000 | – | – | – | – | – | –
13 | CC(C)(C)OC(=O)N[C@@H](Cc1c[nH]c2ccccc12)C(=O)NCCCCCCCCCCC(=O)Nc1ccc(NC(=S)NC(=O)c2ccc(C(C)(C)C)cc2)cc1 | inactive | 383 | 109 | inactive | 41800 | inactive | inactive | –
14 | CC(C)(C)c1ccc(C(=O)NC(=S)Nc2ccc(NC(=O)CCCCCCCCN)cc2)cc1 | – | 365 | 17.7 | – | 6470 | – | – | –
15 | CC(C)(C)OC(=O)N[C@@H](Cc1c[nH]c2ccccc12)C(=O)NCCCCCCCC(=O)Nc1ccc(NC(=S)NC(=O)c2ccc(C(C)(C)C)cc2)cc1 | inactive | 43 | > 2330 | inactive | > 100000 | inactive | inactive | –
16 | CC(C)(C)c1ccc(C(=O)NC(=S)Nc2ccc(NC(=O)CCCCCCCNC(=O)[C@@H](N)Cc3cnc[nH]3)cc2)cc1 | – | – | – | – | – | – | – | Activity [22]: inactive
17 | CC(C)(C)OC(=O)N[C@@H](Cc1c[nH]c2ccccc12)C(=O)NCCCCCC(=O)Nc1ccc(NC(=S)NC(=O)c2ccc(C(C)(C)C)cc2)cc1 | inactive | 344 | > 291 | inactive | > 100000 | inactive | inactive | –
18 | CC(C)(C)OC(=O)/N=C(\NCCC[C@H](NC(=O)OC(C)(C)C)C(=O)NCCCCCCCC(=O)Nc1ccc(NC(=S)NC(=O)c2ccc(C(C)(C)C)cc2)cc1)NC(=O)OC(C)(C)C | inactive | 374 | > 267 | inactive | > 100000 | inactive | inactive | –
19 | CC(C)(C)c1ccc(C(=O)NC(=S)Nc2ccc(NC(=O)CCCCCCCN)cc2)cc1 | – | > 43000 | – | – | – | – | – | –
20 | CC(C)(C)c1ccc(C(=O)NC(=S)Nc2ccc(NC(=O)CCCCCCCNC(=O)[C@@H](N)CC(N)=O)cc2)cc1 | – | – | – | – | – | – | – | Activity [22]: inactive
21 | CC(C)(C)OC(=O)N[C@@H](Cc1c[nH]c2ccccc12)C(=O)NCCCCCCCCCC(=O)Nc1ccc(NC(=S)NC(=O)c2ccc(C(C)(C)C)cc2)cc1 | inactive | 64 | > 1560 | inactive | > 100000 | inactive | inactive | Activity [8]: Active
22 | CC(C)(C)OC(=O)NCCCC[C@H](NC(=O)OC(C)(C)C)C(=O)NCCCCCCCCCCC(=O)Nc1ccc(NC(=S)NC(=O)c2ccc(C(C)(C)C)cc2)cc1 | inactive | 186 | 400 | inactive | 74500 | inactive | inactive | Activity [8]: Active
23 | CC(C)(C)OC(=O)NCCCC[C@H](NC(=O)OC(C)(C)C)C(=O)NCCOCCOCC(=O)Nc1ccc(NC(=S)NC(=O)c2ccc(C(C)(C)C)cc2)cc1 | – | > 25000 | – | – | – | – | – | –
24 | CC(C)(C)OC(=O)N[C@@H](Cc1c[nH]c2ccccc12)C(=O)NCCCCCCC(=O)Nc1ccc(NC(=S)NC(=O)c2ccc(C(C)(C)C)cc2)cc1 | inactive | 169 | > 592 | inactive | > 100000 | inactive | inactive | –
